Drawing on EPA's ToxValDB 9.5 (doi:10.2903/j.efsa.2005.285), this text covers LEL, NOAEL and LOEL for two molecules.

One data set has as its system Ovis sp. The note with it: oral, diet.
For a further data set, the system named is Gallus gallus. The note with it: reproduction developmental, oral, diet, F.
For another data set, the system named is Canidae. The conditions noted are these: chronic, oral, Beagle, organ weight.
Another data set concerns Bovidae. The note with it: subchronic, oral, diet; for LEL: duration: 12 weeks, no effects.
The test system of the next data set is Sus scrofa. The conditions noted are these: subchronic; duration: 60 days; oral; diet; Not specified; no effects.
A further data set has as its system Oncorhynchus mykiss. The conditions noted are these: chronic/long-term; duration: 240 days; oral; feed; clinical chemistry.

Each structure is given as a SMILES string.

In general, NOAEL refers to the highest tested level that showed no adverse finding. Consider `ClC1=C(Cl)[C@]2(Cl)[C@H]3[C@H]([C@@H]4C=C[C@H]3C4)[C@@]1(Cl)C2(Cl)Cl` [Aldrin], for which the LEL in the data set with Ovis sp. (subchronic, duration: 12 weeks, no effects) came out at 0.3 mg/kg-day; with Bovidae (M), 0.3 mg/kg-day. The no observed adverse effect level (NOAEL) in the data set with Gallus gallus (duration: 2 years, no effects) amounted to 0.06 mg/kg-day; in the data set on Canidae (duration: 15.6 months, diet, M/F) it was 0.05 mg/kg-day; in the data set on Bovidae (duration: 43 days, F, clinical signs) it was 1.5 mg/kg-day.

With `ClC1=C(Cl)[C@]2(Cl)[C@@H]3[C@@H]4C[C@@H]([C@H]5O[C@@H]45)[C@@H]3[C@@]1(Cl)C2(Cl)Cl` [Dieldrin], the LEL with Sus scrofa amounted to 1.2 mg/kg-day; in the data set with Bovidae (F), 0.08 mg/kg-day; with Bovidae (M) it was 0.06 mg/kg-day. In addition, the NOAEL came out at 1 mg/kg-day in the data set on Ovis sp. (chronic, duration: 32 weeks, body weight); 0.6 mg/kg-day with Gallus gallus (duration: 13 months, mortality); 0.005 mg/kg-day in the data set with Canidae (duration: 2 years, capsule). Also, the LOEL in the data set with Oncorhynchus mykiss worked out at 14 µg/kg-day.
